Patent US20120021468A1, “PRODUCTION OF L-RIBOSE AND OTHER RARE SUGARS” (ZUCHEM, INC., priority 2008, published 2012)

How the values were obtained:
HIV = conditions: cited from earlier work
Recombinant MDH [1] = biological target: T1, Recombinant MDH (Apium graveolens, UniProt Q38707); assay: Relative reaction rates of substrates with recombinantly expressed MDH (NADH measured spectrophotometrically); type: biochemical; conditions: MDH expressed recombinantly; D-mannitol = 100%
T1 construct: An MDH gene was synthetically constructed for expression E. coli; made in house; host or cells: E. coli BL21, pTTQ18 plasmid
Protocol: (§1) Many different variables were studied to maximize the expression and activity of MDH. MDH activity was monitored with the conversion of D-mannitol to D-mannose in the presence of NAD. The conversion was monitored spectrophotometrically by measuring the increasing concentration of NADH, the cofactor product of the oxidation of mannitol to mannose. For a given experiment, lysate protein concentrations were normalized.
(§2) Substrate specificity of the recombinant MDH was also tested and compared with the published data on the natively expressed MDH. Recombinant expression of MDH in E. coli could cause subtle modifications to the tertiary structure of MDH and modify the substrate specificity. Several known substrates of the MDH were tested.[16]

[2] = system: E. coli production strain with inactive PEP-dependent phosphotransferase system; assay: Polyol conversion in shake flasks by mutagenized PTS-inactive E. coli MDH strain, HPLC; type: cell-based
Description: This can be accomplished by PCR-based genetic deletion of phosphocarrier protein ptsH, phosphotransferase system enzyme I ptsI, and the glucose specific enzyme IIA PTS component crr, but could be accomplished by other genetic manipulation including deletion of the polyol specific PTS type II genes or other genetic or biochemical manipulation known to those skilled in the art. These mutations render the production strain unable to metabolize or phosphorylatively uptake D-mannitol, galactitol, or D-sorbitol.
Flasks contained LB, ampicillin, 250 μM ZnCl2, and 40 g/L galactitol, D-mannitol, or D-sorbitol. Cells were induced with 0.5 mM IPTG after 4 hrs growth at 37° C. and the temperature was reduced to 25° C. After 6 days of incubation, D-mannose had been created from D-mannitol with 12% conversion. D-sorbitol conversion to L-gulose ceased after 7 days with a final conversion of 12%. Following 14 days of reaction, L-galactose had been produced from galactitol with 40% conversion. The final products were characterized by non-chiral HPLC in comparison to their D-counterparts. Optical rotation was obtained by polarimetry and used to verify stereochemistry. This resulting strain is further capable of converting D-arabitol to D-lyxose at 24% conversion.

Native MDH = biological target: T2, Native MDH (Apium graveolens, UniProt Q38707); conditions: MDH expressed natively; D-mannitol = 100%; published data; cited from earlier work
T2 construct: compared with the published data on the natively expressed MDH; host or cells: celery (Apium graveolens), native expression

[3] = system: recombinant E. coli MDH strain; assay: Polyol bioconversion by the recombinant E. coli MDH strain, HPLC; type: cell-based; conditions: strain with active phosphotransferase uptake system
Description: It was hypothesized that the lack of conversion was due to the phosphotransferase uptake system for D-mannitol, galactitol, and D-sorbitol, which phosphorylates these polyols upon uptake.

Recombinant MDH [4] = biological target: T3, Recombinant MDH (Apium graveolens, UniProt Q38707, C47S/T120I); assay: Relative reaction rates of substrates with recombinantly expressed MDH (NADH measured spectrophotometrically); type: biochemical; conditions: recombinant MDH
T3 construct: An MDH gene was synthetically constructed for expression E. coli; made in house; host or cells: E. coli BL21, pTTQ18 plasmid
Protocol: as §1, §2

[5] = biological target: T4, Apium gravelons mannitol-1-dehydrogenase (MDH) (Apium graveolens, UniProt Q38707, C47S/T120I); assay: MDH activity in lysate with added divalent metal salts; type: biochemical
T4 construct: An MDH gene was synthetically constructed for expression E. coli; made in house; host or cells: E. coli BL21, pTTQ18 plasmid
Protocol: While not explicitly described in the literature, Apium gravelons mannitol-1-dehydrogenase (MDH) requires divalent metal ions, particularly Zn^2+ ions, for activity. The presence of ZnSO4 increases MDH activity. Cells expressing MDH were grown in rich media were harvested and lysed with BUGBUSTER® protein extraction reagent, Novagen, Madison, Wis. MDH activity was then tested with increasing concentrations of ZnSO4 in the presence of D-mannitol and NAD cofactor at pH 9.0. See, FIG. 11.

[6] = system: recombinant E. coli expressing MDH; assay: Effect of Zn2+ on L-ribose production from ribitol; type: cell-based; conditions: LB, 100 g/L ribitol, 0.5% glycerol
Protocol: The cultures are analyzed for production of L-ribose vs. time. The optimum production of L-ribose occurs between 0.15 and 1.5 mM Zn^2+ with the best conversion at 0.5 mM ZnCl2 (FIG. 14).

[7] = pH profile of MDH oxidation activity; type: biochemical; conditions: relative to maximum at pH 9.0
Protocol: as §1
The pH profile for MDH for the oxidation reactions was also tested. […] This range could be beneficial for in vitro bioconversions with enzymatic NAD cofactor recycling methods. Increasing the activity of MDH at neutral pH could improve in vivo fermentation activity as the interior of the E. coli cell has a pH lower than 9.0.[21]

[8] = Thermostability of recombinant MDH in lysates; type: physicochemical; conditions: after four hours of incubation at various temperatures, except at 25° C.
Protocol: The thermostability of recombinant MDH was also tested. Lysates containing MDH were incubated at various temperatures. Aliquots of MDH were removed at various times to measure MDH activity using the assay described above. See, FIG. 13.

[9] = MDH thermal stability: incubation at 43° C. followed by kinetic assay; type: physicochemical; conditions: relative to WT
[10] = Fermentation of ribitol to L-ribose with wild-type MDH in E. coli; type: cell-based
Protocol: Because of the successes with the expression of MDH in E. coli, additional experiments were performed to determine the feasibility of the MDH system to produce L-ribose with MDH enzyme. Initial fermentation experiments were performed in shake-flasks using rich media and varying concentrations of ribitol. With 2% ribitol (w/v), the MDH-expressing strain converted approximately 25% of the ribitol to L-ribose with 48 hrs. The goal for this strain would be to have >90% conversion within 24-48 hrs.
One goal for the fermentation would be the synthesis of 100-150 g·L^−1 of L-ribose in 24-48 hrs with >90% conversion efficiency from ribitol. Initial fermentation results with the wild-type MDH show a productivity of approximately 35 g·L^−1 in 48 hrs with 30% ribitol converted.

In the case of `Nc1ccn(C2CSC(CO)O2)c(=O)n1` (racemic) [BCH-189, (±)-2,3-dideoxy-3′-thiacytidine], the anti-HIV activity (HIV) is listed as “anti-HIV activity”.

In the case of `OC[C@@H](O)C(O)[C@H](O)CO` [D-Arabitol], the “Relative reaction rates, Recombinant MDH” value (Recombinant MDH [1]) is listed as 33%, the “conversion of D-arabitol to D-lyxose” value [2] is listed as 24% and the “Relative reaction rates, Native MDH” value (Native MDH) is listed as 37%.

For `OC[C@@H](O)[C@@H](O)[C@H](O)[C@H](O)CO` [D-Mannitol], the “Relative reaction rates, Recombinant MDH” value (Recombinant MDH [1]) was 100%, the “conversion of polyol to sugar detected by HPLC” value (from here on “conversion of polyol”) [3] was “none was detected” and the “conversion of D-mannitol to D-mannose” value ([2]; 40 g/L polyol, 25° C., after 6 days) was 12%. The “Relative reaction rates, Native MDH” value (Native MDH) was 100%.

In the case of `OC[C@@H](O)[C@@H](O)[C@H](O)[C@@H](O)CO` [D-Sorbitol], the “Relative reaction rates, Recombinant MDH” value (Recombinant MDH [1]) is reported as 5%, the “conversion of polyol” value [3] is reported as “none was detected” and the “final conversion of D-sorbitol to L-gulose” value ([2]; 40 g/L polyol, 25° C., ceased after 7 days) is reported as 12%. The “Relative reaction rates, Native MDH” value (Native MDH) was 22%.

For `OC[C@@H](O)[C@@H](O)CO` [Erythritol], the “Relative reaction rates, Recombinant MDH” value (Recombinant MDH [1]) is given as 4% and the “Relative reaction rates, Native MDH” value (Native MDH) is given as 16%.

With `C[C@H](O)[C@@H](O)[C@@H](O)[C@H](O)CO` [L-fucitol] the “relative reaction rate, % the rate of D-mannitol” value (Recombinant MDH [4]) was 10.5%.

With `O=S(=O)([O-])[O-].[Ni+2]` [NiSO4] the “inhibition of MDH activity compared to MDH without NiSO4” value ([5]; 0.1 mM NiSO4) was “approximately 50%”.

For `OC[C@@H](O)[C@@H](O)[C@@H](O)CO` [Ribitol], the “Relative reaction rates, Recombinant MDH” value (Recombinant MDH [1]) is given as 50% and the “Relative reaction rates, Native MDH” value (Native MDH) is given as 36%.

In the case of `Nc1ccn([C@@H]2CS[C@H](CO)O2)c(=O)n1` [Strain L-3TC], the “potency compared with the D-form of BCH-189” value (HIV) is given as “more potent”.

In the case of `OC[C@@H](O)[C@H](O)[C@@H](O)CO` [Xylitol], the “Relative reaction rates, Recombinant MDH” value (Recombinant MDH [1]) is listed as 1% and the “Relative reaction rates, Native MDH” value (Native MDH) is listed as 0%.

With `[Cl-].[Cl-].[Zn+2]` [ZnCl2] the “ZnCl2 concentration of best conversion” value [6] was 0.5 mM.

In the case of `O=S(=O)([O-])[O-].[Zn+2]` [Zn^2+], the “concentrations showing inhibition of MDH activity” value ([5]; D-mannitol, NAD, pH 9.0) is reported as “above 1 μM” and the “increase of MDH activity compared to no added zinc” value ([5]; addition of 1 μM Zn2+, D-mannitol, NAD, pH 9.0) is reported as 50%.

In the case of `OC[C@@H](O)[C@H](O)[C@H](O)[C@@H](O)CO` [galactitol], the “conversion of polyol” value [3] is reported as “none was detected” and the “conversion of galactitol to L-galactose” value ([2]; 40 g/L polyol, 25° C., 14 days) is reported as 40%.

B1: MDH: NAD-dependent mannitol-1-dehydrogenase from Apium graveolens, SEQ ID NO:2, wild type, expressed in E. coli (protein)
chain: MAKSSEIEHPVKAFGWAARDTTGLLSPFKFSRRATGEKDVRLKVLFSGVCHSDHHMIHNNWGFTTYPIVPGHEIVGVVTEVGSKVEKVKVGDNVGIGCLVGSCRSCESCCDNRESHCENIIDTYGSIYFDGTMTHGGYSDTMVADEHFILRWPKNLPLDSGAPLLCAGITTYSPLKYYGLDKPGTKIGVVGLGGLGHVAVKMAKAFGAQVTVIDISESKRKEALEKLGADSFLLNSDQEQMKGARSSLDGIIDTVPVNHPLAPLFDLLKPNGKLVMVGAPEKPFELPVFSLLKGRKLLGGTINGGIKETQEMLDFAAKHNITADVEVIPMDYVNTAMERLVKSDVRYRFVIDIANTMRTEESLGA
With B1 the “residual activity at pH 7.0” value [7] was 10%, the “loss of MDH activity on incubation of lysates” value [8] was “Most MDH activity was lost” and the “Ratio T1/2” value [9] was 1.0. The “ribitol converted to L-ribose” value ([10]; 2% ribitol (w/v), shake-flask, 48 hrs) was “approximately 25%”, the ribitol converted ([10]; 48 hrs) was 30% and the “productivity of L-ribose” value ([10]; in 48 hrs, unoptimized E. coli strain) was “approximately 35 g·L^−1”.
